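Where inhibition never reached the appropriate level, the endpoint shown equals the highest concentration tested. Otherwise, values were interpolated linearly from a five-concentration, 48-hour dose response in 96-well plates. At the GI50, growth is halved.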 The source made the active and inactive calls. No stated cut-off is given here; in the data, active = GI50 up to about 1.1 µM and inactive = higher.
Tests used:
Experiment in all cases: NCI-60 cell line screen, 48 h
HCT-116 = system: HCT-116
NCI-H23 = system: NCI-H23
K562 = system: K562
NCI-H460 = system: NCI-H460
SN12C = system: SN12C
IGROV-1 = system: IGROV-1
NCI-H226 = system: NCI-H226
HT-29 = system: HT-29
LXFL 529 = system: LXFL 529
KM-20L2 = system: KM-20L2
TK-10 = system: TK-10
CAKI-1 = system: CAKI-1
OVCAR-3 = system: OVCAR-3
UACC-62 = system: UACC-62
UACC-257 = system: UACC-257
NCI-H522 = system: NCI-H522
ACHN = system: ACHN
PC-3 = system: PC-3

Row | SMILES | GI50 (HCT-116) | GI50 (NCI-H23) | GI50 (K562) | GI50 (NCI-H460) | GI50 (SN12C) | GI50 (IGROV-1) | GI50 (NCI-H226) | GI50 (HT-29) | GI50 (LXFL 529) | GI50 (KM-20L2) | GI50 (TK-10) | GI50 (CAKI-1) | GI50 (OVCAR-3) | GI50 (UACC-62) | GI50 (UACC-257) | GI50 (NCI-H522) | GI50 (ACHN) | GI50 (PC-3)
1 | CCN(CC)CCNC(=O)c1nn(C)c(=S)[nH]c1=S | > 100 µM (inactive) | > 100 µM (inactive) | > 100 µM (inactive) | > 100 µM (inactive) | > 100 µM (inactive) | > 100 µM (inactive) | > 100 µM (inactive) | > 100 µM (inactive) | > 100 µM (inactive) | > 100 µM (inactive) | > 100 µM (inactive) | > 100 µM (inactive) | > 100 µM (inactive) | > 100 µM (inactive) | > 100 µM (inactive) | > 100 µM (inactive) | > 100 µM (inactive) | –
2 | COC(=O)C1=C(C(=O)OC)C23CC4CCC2(C(=O)C1O3)C4(C)C (centres undefined) | 51.8 µM (inactive) | > 100 µM (inactive) | 56.2 µM (inactive) | > 100 µM (inactive) | > 100 µM (inactive) | > 100 µM (inactive) | > 100 µM (inactive) | > 100 µM (inactive) | > 100 µM (inactive) | > 100 µM (inactive) | > 100 µM (inactive) | > 100 µM (inactive) | > 100 µM (inactive) | 73.1 µM (inactive) | > 100 µM (inactive) | 22 µM (inactive) | > 100 µM (inactive) | –
3 | O=c1cc2n(c(=O)[nH]1)C1OC(C(O)C1O)[C@@H]2CCO (some centres undefined) | – | > 100 µM (inactive) | > 100 µM (inactive) | > 100 µM (inactive) | > 100 µM (inactive) | > 100 µM (inactive) | > 10 µM (inactive) | > 100 µM (inactive) | > 100 µM (inactive) | > 100 µM (inactive) | > 100 µM (inactive) | > 100 µM (inactive) | – | > 100 µM (inactive) | > 100 µM (inactive) | > 100 µM (inactive) | > 100 µM (inactive) | –
4 | CCSC1=C(C)N(/C=N/C(C)(C)C)CC1 | > 100 µM (inactive) | > 100 µM (inactive) | > 100 µM (inactive) | > 100 µM (inactive) | > 100 µM (inactive) | > 100 µM (inactive) | > 100 µM (inactive) | > 100 µM (inactive) | > 100 µM (inactive) | > 100 µM (inactive) | > 100 µM (inactive) | > 100 µM (inactive) | > 100 µM (inactive) | > 100 µM (inactive) | > 100 µM (inactive) | > 100 µM (inactive) | > 100 µM (inactive) | –
5 | COc1cc(CC(=O)O)c([N+](=O)[O-])cc1OC | > 100 µM (inactive) | > 100 µM (inactive) | > 100 µM (inactive) | > 100 µM (inactive) | > 100 µM (inactive) | > 100 µM (inactive) | > 100 µM (inactive) | > 100 µM (inactive) | > 100 µM (inactive) | > 100 µM (inactive) | > 100 µM (inactive) | > 100 µM (inactive) | > 100 µM (inactive) | > 100 µM (inactive) | > 100 µM (inactive) | > 100 µM (inactive) | > 100 µM (inactive) | –
6 | COC1=C(OC)C(=O)c2cc(SC)c(=O)c(SC)cc2C1=O | 20 µM (inactive) | 5.75 µM (inactive) | 15.9 µM (inactive) | 45.5 µM (inactive) | 14.7 µM (inactive) | 33.1 µM (inactive) | 13.5 µM (inactive) | > 100 µM (inactive) | 15.8 µM (inactive) | > 100 µM (inactive) | 59 µM (inactive) | 72.4 µM (inactive) | 8.93 µM (inactive) | 2.12 µM (inactive) | 6.65 µM (inactive) | 17.1 µM (inactive) | 12.8 µM (inactive) | –
7 | N#CC(NNC(=O)c1ccccc1O)c1ccccc1 (centres undefined) | 0.577 µM (active) | 1.72 µM (inactive) | 0.404 µM (active) | 0.646 µM (active) | 9.08 µM (inactive) | 1.13 µM (inactive) | 5.87 µM (inactive) | 26 µM (inactive) | 0.652 µM (active) | 22 µM (inactive) | 4.3 µM (inactive) | 2.91 µM (inactive) | 3.12 µM (inactive) | 0.398 µM (active) | 5.94 µM (inactive) | 10.2 µM (inactive) | 0.479 µM (active) | –
8 | O=C1C2=C(C(c3ccccc3)=C1c1ccccc1)c1ccccc1C1(c3ccccc3)C2=C(O)C(c2ccccc2)=C1c1ccccc1 (centres undefined) | > 100 µM (inactive) | > 100 µM (inactive) | – | > 100 µM (inactive) | > 100 µM (inactive) | > 100 µM (inactive) | > 100 µM (inactive) | > 100 µM (inactive) | > 100 µM (inactive) | > 100 µM (inactive) | > 100 µM (inactive) | > 100 µM (inactive) | > 100 µM (inactive) | > 100 µM (inactive) | > 100 µM (inactive) | > 100 µM (inactive) | > 100 µM (inactive) | –
9 | O=C(/C=C/c1ccccc1)NC1C=Nc2ccc(Cl)cc2NC1=O (centres undefined) | 22.8 µM (inactive) | 27.5 µM (inactive) | 9.42 µM (inactive) | 20.9 µM (inactive) | 24.8 µM (inactive) | 15 µM (inactive) | 30.8 µM (inactive) | 30 µM (inactive) | 23.9 µM (inactive) | 26 µM (inactive) | 36 µM (inactive) | 22.6 µM (inactive) | 19.5 µM (inactive) | 26.2 µM (inactive) | 26.4 µM (inactive) | 9.64 µM (inactive) | 24.1 µM (inactive) | –
10 | CCCc1c(C(=O)OCC)[nH]c(-c2ccc(-c3[nH]c(C(=O)OCC)c(CCC)c3C(=O)OCC)s2)c1C(=O)OCC | 33.3 µM (inactive) | 28.2 µM (inactive) | 79.4 µM (inactive) | 37 µM (inactive) | > 100 µM (inactive) | 58.2 µM (inactive) | 72.1 µM (inactive) | 38.8 µM (inactive) | 33 µM (inactive) | 72.1 µM (inactive) | 50.1 µM (inactive) | 39.7 µM (inactive) | 31.6 µM (inactive) | 32.1 µM (inactive) | 66.1 µM (inactive) | 32.6 µM (inactive) | 34.8 µM (inactive) | –
11 | NC1c2ccccc2Nc2ccccc21 | 3.23 µM (inactive) | 4.74 µM (inactive) | 3.54 µM (inactive) | 2.76 µM (inactive) | 4.53 µM (inactive) | 2.95 µM (inactive) | 9.1 µM (inactive) | 4.08 µM (inactive) | 4.94 µM (inactive) | 3.76 µM (inactive) | 5.82 µM (inactive) | 3.63 µM (inactive) | 6.08 µM (inactive) | 4.26 µM (inactive) | 5.21 µM (inactive) | 2.15 µM (inactive) | 4.9 µM (inactive) | –
12 | Cc1ccc(S(=O)(=O)N/N=C/c2oc(-c3cccc([N+](=O)[O-])c3)c(-c3cccc([N+](=O)[O-])c3)c2[N+](=O)[O-])cc1 | 32.4 µM (inactive) | 42.4 µM (inactive) | 24.9 µM (inactive) | > 100 µM (inactive) | 61.4 µM (inactive) | 29.9 µM (inactive) | > 100 µM (inactive) | > 100 µM (inactive) | 36.7 µM (inactive) | > 100 µM (inactive) | > 100 µM (inactive) | > 100 µM (inactive) | > 100 µM (inactive) | 17.8 µM (inactive) | 64.7 µM (inactive) | 15.1 µM (inactive) | 45.8 µM (inactive) | –
13 | CCOC(OCC)C(CC)[Se]c1ccccc1[N+](=O)[O-] (centres undefined) | 3.6 µM (inactive) | 3.03 µM (inactive) | 1.93 µM (inactive) | 2.81 µM (inactive) | 7.94 µM (inactive) | 3.48 µM (inactive) | 7.96 µM (inactive) | 2.39 µM (inactive) | 4.39 µM (inactive) | 1.96 µM (inactive) | 8.09 µM (inactive) | 2.75 µM (inactive) | 2.45 µM (inactive) | 2.44 µM (inactive) | 8.83 µM (inactive) | 1.72 µM (inactive) | 11.3 µM (inactive) | 3.27 µM (inactive)

Reference: ChEMBL document CHEMBL1201862, “PubChem BioAssay data set” (2004)
